Square brackets hold non-standard residues; d marks the D form. Peptide text beside a SMILES is read from it.
Legend:
[1] = molecular target: T1, Mu-type opioid receptor (Homo sapiens, UniProt P35372); test: Displacement of [3H]diprenorphine from human cloned mu receptor by cell based assay
[2] = molecular target: Delta-type opioid receptor (Homo sapiens, UniProt P41143); test: Displacement of [3H]diprenorphine from human cloned delta receptor by cell based assay
[3] = molecular target: T2, Kappa-type opioid receptor (Homo sapiens, UniProt P41145); test: Displacement of [3H]diprenorphine from human cloned kappa opioid receptor by cell based assay
[4] = species: Homo sapiens; test: Ratio of Ki for human cloned mu opioid receptor to Ki for human cloned kappa opioid receptor
[5] = molecular target: T1, Mu-type opioid receptor; test: Antagonist activity at human cloned mu opioid receptor assessed as inhibition of 100 nM loperamide-stimulated GTPgammaS binding by cell based assay; format: functional
[6] = molecular target: T2, Kappa-type opioid receptor; test: Antagonist activity at human cloned kappa opioid receptor assessed as inhibition of 50 nM U50488H-stimulated GTPgammaS binding by cell based assay; format: functional
[7] = molecular target: Mu-type opioid receptor (Cavia porcellus, UniProt P97266); test: Binding affinity to mu opioid receptor in guinea pig brain membrane; format: cell membranes
[8] = Binding affinity to delta opioid receptor in guinea pig brain membrane; format: cell membranes, Cavia porcellus
[9] = Antagonist activity at kappa opioid receptor in rabbit vas deferens assessed as reversal of asimadoline-suppressed electrically-stimulated twitch response; format: functional, tissue-based; conditions: Oryctolagus cuniculus
[10] = molecular target: Kappa-type opioid receptor (Cavia porcellus, UniProt P41144); test: Binding affinity to kappa opioid receptor in guinea pig brain membrane; format: cell membranes
Chain of Kappa-type opioid receptor (Cavia porcellus, UniProt P41144) (P41144 whole entry): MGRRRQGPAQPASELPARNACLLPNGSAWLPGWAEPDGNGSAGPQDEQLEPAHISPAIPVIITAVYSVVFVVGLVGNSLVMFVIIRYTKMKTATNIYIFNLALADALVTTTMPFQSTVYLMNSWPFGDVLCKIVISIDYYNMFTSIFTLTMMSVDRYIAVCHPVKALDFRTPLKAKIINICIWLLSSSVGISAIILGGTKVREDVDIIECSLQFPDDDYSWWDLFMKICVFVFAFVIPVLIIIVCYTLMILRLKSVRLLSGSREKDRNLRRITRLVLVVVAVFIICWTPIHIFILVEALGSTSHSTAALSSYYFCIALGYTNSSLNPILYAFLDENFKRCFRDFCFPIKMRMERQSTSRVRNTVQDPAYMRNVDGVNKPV

Chain of Delta-type opioid receptor (P41143 whole entry): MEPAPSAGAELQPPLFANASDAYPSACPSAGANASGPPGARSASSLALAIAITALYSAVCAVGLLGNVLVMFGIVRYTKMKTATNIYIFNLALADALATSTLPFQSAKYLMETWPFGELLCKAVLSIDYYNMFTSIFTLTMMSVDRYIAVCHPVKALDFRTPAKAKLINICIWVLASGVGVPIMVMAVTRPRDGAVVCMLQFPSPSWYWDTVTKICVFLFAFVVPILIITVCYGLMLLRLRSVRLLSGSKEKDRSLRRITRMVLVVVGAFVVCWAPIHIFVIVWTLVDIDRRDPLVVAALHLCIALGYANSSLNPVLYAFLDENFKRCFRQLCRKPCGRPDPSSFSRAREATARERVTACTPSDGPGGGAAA
T1 sequence (P35372 whole entry): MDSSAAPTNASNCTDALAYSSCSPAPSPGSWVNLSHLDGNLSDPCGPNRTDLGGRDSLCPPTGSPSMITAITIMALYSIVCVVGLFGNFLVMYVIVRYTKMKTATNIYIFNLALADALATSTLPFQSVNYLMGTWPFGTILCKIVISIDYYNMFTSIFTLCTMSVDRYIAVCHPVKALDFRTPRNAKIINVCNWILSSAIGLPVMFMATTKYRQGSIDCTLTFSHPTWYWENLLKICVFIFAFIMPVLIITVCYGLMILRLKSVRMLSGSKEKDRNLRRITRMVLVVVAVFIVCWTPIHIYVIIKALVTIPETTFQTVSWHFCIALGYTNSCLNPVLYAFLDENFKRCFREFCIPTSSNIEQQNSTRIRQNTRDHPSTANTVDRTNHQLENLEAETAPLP
T2 sequence (P41145 whole entry): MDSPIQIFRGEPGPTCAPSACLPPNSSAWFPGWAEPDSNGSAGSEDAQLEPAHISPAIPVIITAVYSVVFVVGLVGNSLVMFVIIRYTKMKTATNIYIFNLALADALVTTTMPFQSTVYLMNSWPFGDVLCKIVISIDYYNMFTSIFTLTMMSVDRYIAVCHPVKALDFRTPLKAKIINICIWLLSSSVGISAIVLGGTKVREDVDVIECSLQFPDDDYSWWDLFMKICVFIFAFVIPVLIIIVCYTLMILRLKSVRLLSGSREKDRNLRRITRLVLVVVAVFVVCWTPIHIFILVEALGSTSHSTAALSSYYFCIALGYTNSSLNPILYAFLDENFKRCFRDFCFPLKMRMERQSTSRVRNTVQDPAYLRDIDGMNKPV
Chain of Mu-type opioid receptor (Cavia porcellus, UniProt P97266) (P97266 whole entry): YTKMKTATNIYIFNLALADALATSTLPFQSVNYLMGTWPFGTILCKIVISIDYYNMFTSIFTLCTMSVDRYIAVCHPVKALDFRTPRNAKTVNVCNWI

CC(=O)N[C@@H](Cc1ccccc1)C(=O)N[C@H](Cc1c[nH]c2ccccc12)C(=O)N[C@@H](Cc1ccccc1)C(=O)N1CCC[C@@H]1C(N)=O
Ki [1]: 360 nM | Ki [2]: > 1000 nM | Ki [3]: > 1000 nM

O=C1N[C@H](Cc2c[nH]c3ccccc23)C(=O)N[C@@H](Cc2cccc(O)c2)C(=O)N2CCC[C@@H]2C(=O)N[C@H]1Cc1ccccc1
Ratio Ki [4]: 0.47 | Ki [1]: 37 nM | Ki [2]: 670 nM | Ki [3]: 78 nM

CC(=O)N[C@H](Cc1c[nH]c2ccccc12)C(=O)N[C@@H](Cc1ccccc1)C(=O)N1CCC[C@@H]1C(=O)N[C@@H](Cc1ccccc1)C(N)=O
Ki [1]: > 1000 nM | Ki [2]: > 1000 nM | Ki [3]: > 1000 nM

O=C1N[C@H](Cc2c[nH]c3ccccc23)C(=O)N[C@@H](Cc2ccccc2)C(=O)N2CCC[C@@H]2C(=O)N[C@H]1Cc1ccc(F)cc1
Ratio Ki [4]: 2.3 | Ki [1]: 48 nM | Ki [2]: > 1000 nM | Ki [3]: 21 nM

CC(=O)N[C@@H](Cc1ccccc1)C(=O)N1CCC[C@@H]1C(=O)N[C@@H](Cc1ccccc1)C(=O)N[C@H](Cc1c[nH]c2ccccc12)C(N)=O
Ki [1]: > 1000 nM | Ki [2]: > 1000 nM | Ki [3]: > 1000 nM

CC(=O)N[C@@H](Cc1ccccc1)C(=O)N1CCC[C@@H]1C(=O)N[C@@H](Cc1ccccc1)C(=O)N[C@@H](Cc1c[nH]c2ccccc12)C(N)=O
Ki [1]: > 1000 nM | Ki [2]: > 1000 nM | Ki [3]: > 1000 nM

COc1ccc(C[C@@H]2NC(=O)[C@H]3CCCN3C(=O)[C@H](Cc3ccccc3)NC(=O)[C@@H](Cc3c[nH]c4ccccc34)NC2=O)cc1
Ratio Ki [4]: 3.1 | Ki [1]: 43 nM | Ki [2]: > 1000 nM | Ki [3]: 14 nM

CC(=O)N1CCC[C@@H]1C(=O)N[C@@H](Cc1ccccc1)C(=O)N[C@@H](Cc1c[nH]c2ccccc12)C(=O)N[C@@H](Cc1ccccc1)C(N)=O
Ki [1]: > 1000 nM | Ki [2]: > 1000 nM | Ki [3]: > 1000 nM

O=C1N[C@H](Cc2c[nH]c3ccccc23)C(=O)N[C@@H](Cc2ccccc2)C(=O)N2CCC[C@@H]2C(=O)N[C@H]1Cc1cccc(O)c1
Ratio Ki [4]: 2 | Ki [1]: 40 nM | Ki [2]: 3400 nM | Ki [3]: 20 nM

C[C@@H]1NC(=O)[C@@H](Cc2c[nH]c3ccccc23)NC(=O)[C@H](Cc2ccccc2)NC(=O)[C@H]2CCCN2C1=O (cyclo(A[dP]F[dW]))
Ratio Ki [4]: 4.2 | Ki [1]: 22 nM | Ki [2]: > 1000 nM | Ki [3]: 5.2 nM | IC50 [5]: 48 nM | IC50 [6]: 5 nM

C[C@@H]1NC(=O)[C@H]2CCCN2C(=O)[C@H](Cc2ccccc2)NC(=O)[C@@H](Cc2c[nH]c3ccccc23)NC1=O (cyclo(A[dW]F[dP]))
Ratio Ki [4]: 1.7 | Ki [1]: 2200 nM | Ki [2]: > 1000 nM | Ki [3]: 1300 nM

O=C1N[C@H](Cc2c[nH]c3ccccc23)C(=O)NCC(=O)N2CCC[C@@H]2C(=O)N[C@H]1Cc1ccccc1
Ratio Ki [4]: 2.8 | Ki [1]: 770 nM | Ki [2]: > 1000 nM | Ki [3]: 270 nM

O=C1N[C@H](Cc2c[nH]c3ccccc23)C(=O)N[C@@H](Cc2ccccc2)C(=O)N2CCC[C@@H]2C(=O)N[C@H]1Cc1ccccc1 (cyclo(F[dP]F[dW]))
Ratio Ki [4]: 7.9 | Ki [1]: 30 nM | Ki [2]: > 1000 nM | Ki [3]: 3.8 nM | IC50 [5]: 21 nM | IC50 [6]: 140 nM

CC(=O)n1cc(C[C@H](N)C(=O)N[C@@H](Cc2ccccc2)C(=O)N2CCC[C@@H]2C(=O)N[C@@H](Cc2ccccc2)C(N)=O)c2ccccc21
Ki [1]: > 1000 nM | Ki [2]: > 1000 nM | Ki [3]: > 1000 nM

O=C1N[C@@H](Cc2ccccc2)C(=O)N2CCC[C@@H]2C(=O)N[C@@H](Cc2ccccc2)C(=O)N[C@H]1Cc1c[nH]c2ccccc12 (cyclo(FWF[dP]))
Ratio Ki [4]: 4.5 | IC50 [7]: 260 nM | Ki [1]: 130 nM | IC50 [8]: 2600 nM | Ki [2]: 2000 nM | Ki [3]: 29 nM | EC50 [9]: 1300 nM | IC50 [5]: 25 nM | IC50 [10]: 47 nM | IC50 [6]: 440 nM

COc1ccc(C[C@@H]2NC(=O)[C@@H](Cc3c[nH]c4ccccc34)NC(=O)[C@H](Cc3ccccc3)NC(=O)[C@H]3CCCN3C2=O)cc1
Ratio Ki [4]: 2.6 | Ki [1]: 170 nM | Ki [2]: > 1000 nM | Ki [3]: 66 nM

O=C1N[C@H](Cc2c[nH]c3ccccc23)C(=O)N[C@@H](Cc2ccc(O)cc2)C(=O)N2CCC[C@@H]2C(=O)N[C@H]1Cc1ccccc1
Ki [2]: > 1000 nM | Ki [3]: 220 nM

C[C@H]1NC(=O)[C@H](Cc2ccccc2)NC(=O)[C@H]2CCCN2C(=O)[C@H](Cc2ccccc2)NC1=O
Ki [1]: > 1000 nM | Ki [2]: > 1000 nM | Ki [3]: > 1000 nM

O=C1N[C@H](Cc2c[nH]c3ccccc23)C(=O)N[C@@H](Cc2ccc(F)cc2)C(=O)N2CCC[C@@H]2C(=O)N[C@H]1Cc1ccccc1
Ratio Ki [4]: 7.5 | Ki [1]: 210 nM | Ki [2]: > 1000 nM | Ki [3]: 28 nM

O=C1N[C@H](Cc2c[nH]c3ccccc23)C(=O)N[C@@H](Cc2ccccc2)C(=O)N2CCC[C@@H]2C(=O)N[C@H]1Cc1ccc(O)cc1
Ratio Ki [4]: 0.85 | Ki [1]: 120 nM | Ki [2]: > 1000 nM | Ki [3]: 140 nM

CC(=O)N[C@@H](Cc1ccccc1)C(=O)N[C@@H](Cc1c[nH]c2ccccc12)C(=O)N[C@@H](Cc1ccccc1)C(=O)N1CCC[C@@H]1C(N)=O
Ki [1]: > 1000 nM | Ki [2]: > 1000 nM | Ki [3]: > 1000 nM

CC(=O)N1CCC[C@@H]1C(=O)N[C@@H](Cc1ccccc1)C(=O)N[C@H](Cc1c[nH]c2ccccc12)C(=O)N[C@@H](Cc1ccccc1)C(N)=O
Ki [1]: 340 nM | Ki [2]: > 1000 nM | Ki [3]: > 1000 nM
